The record followed here is PubChem BioAssay (NCI).

Assay in all cases: inhibition of tumour cell growth, NCI panel, 48 h
Assay [1] concerns MOLT-4 leukemia.
Assay [2] deals with TK-10 renal.
The subject of assay [3] is SF-295 CNS.
Assay [4] concerns PC-3 prostate.
In assay [5] the test system is 786-0 renal.
Assay [6] has as its system SK-MEL-5 melanoma.
Assay [7] deals with OVCAR-8 ovarian.
Assay [8] deals with CCRF-CEM leukemia.
Assay [9] has as its system RXF 393 renal.
Assay [10] deals with SK-MEL-28 melanoma.
In assay [11] the test system is MCF7 breast.
The subject of assay [12] is MDA-MB-435.

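Growth conditions: 96-well plates. Treatment: test compound, 48 hours, 5 concentrations. Analysis: linear interpolation between bracketing concentrations; unreached endpoints set to highest concentration. At the TGI there is no net growth.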 *1 amine or outer side, *2 acyl side, *3 side chain or, on linkers, in order; H or OH if unused. Where a SMILES comes first, the peptide text is derived from it. Bridges are numbered along the chain shown (N, C = ends). Roman numbers before positions name the chains, in order. [ ]: non-standard residue; d: D form. Actinocin(9to1) = Cc1c2oc3c(C)ccc(C(=O)[*:1])c3nc-2c(C(=O)[*:2])c(N)c1=O; NMeH = CN[CH](Cc1c[nH]cn1)C(=O)O; Sar = CNCC(=O)O

Consider `Cn1cccc1-c1ccc(-c2ccc(CO)[se]2)[se]1`, for which the TGI in [1] is 71.4 µM; in assay [2], more than 100 µM; in [3] it was more than 95.8 µM; in assay [4], more than 100 µM; in assay [5] it was more than 100 µM; in assay [6], more than 75 µM. The TGI in assay [7] is more than 100 µM; in assay [8], more than 46.7 µM; in [9] it was 43.2 µM; in assay [10], more than 100 µM; in assay [11] it was more than 40 µM; in assay [12], 18.7 µM.

Take `ClC(Cl)(Cl)C1CCOC1n1nnc2ccccc21` (centres undefined): the TGI in assay [1] was 73.8 µM; in assay [2] it was more than 100 µM; in assay [3], more than 100 µM; in [4], more than 100 µM; in assay [5], more than 100 µM; in assay [6], more than 100 µM. Also, the TGI in assay [7], in [8], in assay [9], in [11] and in assay [12] was more than 100 µM throughout.

Consider `COC(=O)[C@H](Cc1c[nH]c2ccccc12)NP(=O)(OCCC#N)OCC1OC(n2cc(C)c(=O)[nH]c2=O)CC1N=[N+]=[N-]` (some centres undefined), for which the TGI in [1], in [2], in [3], in [4], in [5] and in assay [6] was more than 100 µM throughout. For the same molecule, the TGI in [7], in [8], in assay [9], in [11] and in assay [12] was more than 100 µM each time.

For the molecule `CC(=O)O[C@H]1CC[C@@]2(C)C(=CC[C@@H]3[C@@H]2CC[C@]2(C)C(=N/O)/C(=C\c4ccccc4)C[C@@H]32)C1`, the TGI in [1] was more than 28.5 µM; in [2], 78.8 µM; in assay [3], 67.1 µM; in assay [4] it was more than 100 µM; in [5], more than 55.4 µM; in [6] it was 11.4 µM. Further, the TGI in assay [7] was more than 100 µM; in assay [8], more than 100 µM; in assay [9] it was 40 µM; in assay [10] it was more than 56.3 µM; in assay [11], more than 100 µM; in [12] it was more than 33.1 µM.

`N#CC(CCN1CCC(Nc2ccccc2)(c2nnnn2C2CCCCC2)CC1)(c1ccccc1)c1ccccc1`: the TGI in assay [1], in assay [2], in assay [3], in assay [4], in [5] and in assay [6] was more than 100 µM each time. In addition, the TGI in [7], in assay [8], in assay [9], in assay [10], in assay [11] and in [12] was more than 100 µM each time.

Regarding `Cc1cc(S(=O)(=O)Nc2nc3ncccc3[nH]2)c(S)cc1Cl`, the TGI in assay [1], in assay [2], in assay [3], in [4], in assay [5] and in assay [6] was more than 100 µM throughout. In addition, the TGI in assay [7], in assay [8], in [9], in assay [10], in assay [11] and in assay [12] was more than 100 µM throughout.

Consider `CSC(SC)=C(C#N)C(=O)Nc1cccc(Cl)c1`, for which the TGI in [1] was 87.2 µM; in assay [2], more than 100 µM; in assay [3], more than 100 µM; in assay [4], more than 100 µM; in [5] it was more than 100 µM; in [6], 40.7 µM. Further, the TGI in assay [7], in assay [8], in assay [9], in assay [10], in assay [11] and in assay [12] was more than 100 µM throughout.

`NCCCN(CCCCN(CCCN)C(=O)OCc1ccccc1)C(=O)OCc1ccccc1`: the TGI in assay [1], in assay [2], in assay [3], in assay [4], in [5] and in assay [6] was more than 100 µM throughout. In addition, the TGI in [7] was more than 100 µM; in assay [8] it was more than 100 µM; in assay [9] it was more than 100 µM; in assay [10], more than 100 µM; in assay [11], 77.7 µM; in assay [12] it was more than 100 µM.

For the molecule `O=c1[nH]c(=O)n(C2CC(O)C(CO)O2)cc1Oc1ccccc1` (centres undefined), the TGI in [1], in assay [2], in assay [3], in assay [4], in assay [5] and in assay [6] was more than 100 µM throughout. Further, the TGI in [7], in assay [8], in assay [9], in [10], in [11] and in assay [12] was more than 100 µM throughout.

Turning to `Cc1c2oc3c(C)ccc(C(=O)NC4C(=O)NC(C(C)C)C(=O)N5CCCC5C(=O)N(C)CC(=O)N(C)C(Cc5cnc[nH]5)C(=O)OC4C)c3nc-2c(C(=O)NC2C(=O)NC(C(C)C)C(=O)N3CCCC3C(=O)N(C)CC(=O)N(C)C(Cc3cnc[nH]3)C(=O)OC2C)c(N)c1=O` (centres undefined) (I: TVP[Sar][NMeH] / II: TVP[Sar][NMeH]; ester I:1-I:C, II:1-II:C; linker I:N-II:N via Actinocin(9to1); configuration not given here), the TGI in assay [1] is more than 100 µM; in assay [2] it was more than 100 µM; in assay [3], more than 100 µM; in [4] it was more than 100 µM; in assay [5] it was more than 100 µM; in assay [6], 55.9 µM. In addition, the TGI was more than 100 µM in assay [7]; more than 100 µM in assay [8]; 51.9 µM in assay [9]; more than 100 µM in assay [10]; more than 100 µM in assay [11]; more than 100 µM in assay [12].

As for `O=c1[nH]nc(-c2ccccc2)n1/N=C/c1ccc([N+](=O)[O-])o1`, the TGI is more than 47.1 µM in assay [1]; more than 100 µM in [2]; more than 55.1 µM in assay [3]; more than 30.3 µM in assay [4]; more than 31.7 µM in assay [5]; 28.9 µM in [6]. For the same molecule, the TGI is 19.6 µM in assay [8]; 2.63 µM in assay [9]; 10.3 µM in assay [10]; 7.21 µM in assay [11]; 10.9 µM in assay [12].
